Experimental data as given in patent US12180174B2, “A2-73 crystalline polymorph compositions of matter and methods of use thereof” (ANAVEX LIFE SCIENCES CORP., priority 2018, dated 2024).

Tests used:
[1] = system: AD; conditions: Phase 2a trial of patients; cited from earlier work
[2] = system: ULK1; assay: ULK1 serine 555 phosphorylation, Western blot; type: cell-based, human; conditions: 1 μM; HeLa cells
Source text: Activation of the serine/threonine protein kinase ULK1 (unc-51-like kinase 1) via phosphorylation at serine 555 indicates stimulation of the canonical autophagy pathway. […] It has to be mentioned that this activating ULK1 phosphorylation can be inhibited by mTOR as well as stimulated via AMPK kinase. Both are basal physiological sensors of nutritional conditions and key signal transducers of canonical autophagy stimulation. ULK1 is in fact the signal mediating the induction of the formation of the phagophore during the autophagy process and, therefore, a central promoter of autophagy. ULK1 itself functions in a complex with at least three protein partners: FI P200 (focal adhesion kinase family interacting protein of 200 kDa), ATG (autophagy-related protein) 13 (ATG13), and ATG101.
Cell culture and microscopy. HeLa and HEK293A cells were cultured in DMEM (Invitrogen, Carlsbad, CA, USA, 41965062) supplemented with active FBS (Life Technologies GmbH, Carlsbad, CA, USA, 10270106), 1×ABAM (Invitrogen, 15240-062) and 1 mM sodium pyruvate (Invitrogen, 1136-088). […] Proteins were detected by chemiluminescence using the Amersham Imager 600 (GE). Confocal fluorescence microscopical analyses of HEK293A cells stably expressing GFP-LC3B were performed with the laser scanning microscope LSM 710 (Zeiss, Oberkochen).

[3] = system: C. elegans; assay: GFP-LGG-1 puncta in worms, confocal fluorescence microscopy; type: in vivo; conditions: plus/minus BafiA1; head regions of worms
Source text: To further substantiate this finding we used confocal fluorescence microscopy to directly visualize autophagosomal structures, as indicated by GFP-LGG-1-positive puncta. […] In fact, a significant increase was found; autophagic flux as observed in vivo is induced by ANAVEX2-73 by approx. 2.5-fold (FIG. 37B; The number of GFP-positive autophagosomal structures (indicated by arrowheads) were counted in three independent experiments and in each experiment in at least 8-11 respective head regions of worms), which is consistent with the Western blot analysis (FIG. 37A).
C. elegans strains, maintenance, methods. C. elegans were maintained according to standard procedures on nematode growth medium (NGM) plates seeded with HB101 E. coli. The following strains were employed in this study: GFP::LGG-1 (ex[PIggI::IggI::GFP]/pRF4; maintained at 20° C.; and the strain CL2006 (dvls2 [pCL12(unc-54/human A13 peptide 1-42)+pRF4]), maintained at 15° C.
For analysis of autophagic activity, synchronous nematodes expressing GFP::LGG-1 were cultivated at 20° C. At first day of adulthood, worms were transferred to 80 μM ANAVEX2-73 or control M9 liquid culture medium for 2 h and subsequently were treated with Bafilomycin AI or DMSO (control) for 4-6 h. Thereafter worms were lysed for Western blotting or analyzed by confocal fluorescence microscopy.

[4] = system: muscarinic receptor; conditions: cited from earlier work
[5] = system: C. elegans; assay: GFP-LGG-1-II autophagic flux in worms, Western blot; type: in vivo; conditions: 80 μM; BafiA1 or DMSO for 6 h
Source text: Autophagy modulation by ANAVEX2-73 in vitro and its impact on some key autophagy network factors prompted the inventors to further analyze the impact of Sig-1 R activation by ANAVEX2-73 on autophagy and proteostasis also in vivo, employing the C. elegans model. The nematode ortholog of the human Sig-1 R is W08F4.3 and is expressed in several tissues, including the muscular system. To monitor autophagic flux in vivo the inventors employed a GFP-LGG-1 reporter worm strain. LGG-1 is a nematode ortholog of the mammalian GABARAP, and the GFP-tagged protein can be used to evaluate autophagic activity by Western blotting as well as confocal fluorescence microscopy. Employing Western blotting, the levels of GFP-LGG-1-II plus BafiA1 and without BafiA1 were analyzed, analogously to the flux measurements in HeLa cells as shown in FIG. 37.
C. elegans strains, maintenance, methods. C. elegans were maintained according to standard procedures on nematode growth medium (NGM) plates seeded with HB101 E. coli. […]
For analysis of autophagic activity, synchronous nematodes expressing GFP::LGG-1 were cultivated at 20° C. […] Thereafter worms were lysed for Western blotting or analyzed by confocal fluorescence microscopy.
Western blot analyses were performed as described previously. […] Proteins were detected by chemiluminescence using the Fuji LAS-3000 dark box (Fujifilm, Dusseldorf).

[6] = system: HeLa cells; assay: LC3-II autophagic flux, Western blot with Bafilomycin A1; type: cell-based, human; conditions: BafiA1 2 μM, vs control
Description: To study the effect of ANAVEX2-73 on autophagy, human HeLa cells were treated with the compound and autophagic activity was analyzed by investigating the flux of LC3-II. LC3-II is the lipidated form of LC3, which (partially) stays attached to autophagosomes and thus, gets degraded by lysosomes. Therefore, the quantification of the LC3-II flux, using Bafilomycin AI (BafiAi; 2 μM) for inhibition of lysosomal degradation, directly corresponds to cellular autophagic activity. […] There is a concentration-dependent and significant increase in the autophagic-flux following application of ANAVEX2-73: an increase of over 2-fold at 10 μM and over 1.5-fold at 1 μM ANAVEX2-73 (FIG. 35A). As standard positive control to provoke the induction of autophagy, HeLa cells were incubated with EBSS, which resembles nutrient deprivation as autophagy stimulus.
Cell culture and microscopy. HeLa and HEK293A cells were cultured in DMEM (Invitrogen, Carlsbad, CA, USA, 41965062) supplemented with active FBS (Life Technologies GmbH, Carlsbad, CA, USA, 10270106), 1×ABAM (Invitrogen, 15240-062) and 1 mM sodium pyruvate (Invitrogen, 1136-088). After medium change, the cells were treated for 2 h with 10, 1, and 0.1 μM ANAVEX2-73 and PRE-084 (Tocris, Bristol, UK, 0589), respectively; ANAVEX2-73 was provided by ANAVEX Life Sciences Corp, New York, NY, USA. Afterwards Bafilomycin A1 (Bafi.Ai; 2 μM) (Toronto Research Chemicals, North York, ON, Canada, B110000) or DMSO was added for a further 2 h and the cells were eventually harvested. Western blot analyses were performed as described previously. Briefly, cells were subjected to SDS-PAGE using precast NuPAGE 4%-12% Bis-Tris gels (Invitrogen, NP0322). Proteins were detected by chemiluminescence using the Amersham Imager 600 (GE). Confocal fluorescence microscopical analyses of HEK293A cells stably expressing GFP-LC3B were performed with the laser scanning microscope LSM 710 (Zeiss, Oberkochen).

With `CN(C)CC1CCOC1(c1ccccc1)c1ccccc1.Cl` (centres unmarked) [ANAVEX2-73, tetrahydro-N,N-dimethyl-2,2-diphenyl-3-furanmethanamine hydrochloride] as the compound, how does the “improvement against exploratory endpoints” value [1] read?
Its value is “concentration-dependent improvement against exploratory endpoints”.

What about the safety profile [1] of the same compound?
Its safety profile is “favorable safety profile”.

And the “ULK1 serine 555 phosphorylation” value [2]?
The value was “up to 2 fold”.

What about the “induction of autophagic flux (GFP-LGG-1 puncta)” value [3] of the same compound?
The value was “approx. 2.5 fold”.

What about the “affinity for muscarinic receptor” value [4] of the same compound?
Its value is “low micromolar range”.

What about the “enhancement of autophagic flux (GFP-LGG-1-II, Western blot)” value [5] of the same compound?
The value was about 2 fold.

And the “increase in autophagic flux (LC3-II)” value ([6]; 1 μM)?
The value was “over 1.5 fold”.

And the “increase in autophagic flux (LC3-II)” value ([6]; 10 μM)?
Its value is “over 2 fold”.
